Test results taken from patent publication US20060014709A1, “Drug or cosmetic” (priority 2002, published 2006).
Several values for one entry are separate records, joined by “and”; a condition that tells them apart may be missing. Identical values can stand only once. Entries after “also recorded” stand apart in the source; their conditions may differ. Marks after values point to notes of the source that are not given here.

How the values were obtained:
Format in all cases: in vivo
[1] = test system: male SD rats, obstruction-released kidney (glomerular lesions and tubulointerstitial lesions); assay: Obstruction release model after complete obstruction of unilateral ureter for 14 days (Example 2-1); parameters: key to Tubulointerstitial lesions: level of lesions (quality): summed lesion score: + = 1, ++ = 2, +++ = 3 points; conditions: rat
Text: (§1) That is, the rat was laparotomized under anesthesia with ether and left ureter was ligated with 7-0 Nylon at the height of the margin of lower pole of kidney to close the abdomen. On the 14th day after obstruction, the obstruction was released and urinary passage was reconstructed using a cuff. Thus, after 14 days, the part of ligated obstructed ureter was resected, a polyethylene tube of 25 gages (manufactured by Nippon Sherwood) was used as a cuff and inserted into and retained at the lumen from the cut end of the lower normal ureter, then the cuff was also retained in the expanded upper ureter and each of them was ligated and fixed by 7-0 Nylon to reconstruct the urinary passage. At the same time, the right kidney at the opposite side was excised. After the release of the obstruction, body weight was measured, blood was drawn on the 2nd day, 5th day and 7th day from the release to measure serum creatinine, then the rat was killed under anesthesia and the left obstruction-released kidney was excised.
With regard to the excised kidney, there were carried out measurements of weight of the kidney, creatinine concentration mg/dl in plasma as an indicator of kidney function and pathological test for the kidney, and also leukocyte cells which infiltrate the obstruction-released kidney were immunopathologically studied with cell surface markers for ED1 macrophages, CD11b (ED8) positive macrophages and CD5 positive lymphocytes. A number of positive cells was expressed as a number of cells per glomerulus from measured numbers of positive cells in five glomeruli, and for a number in tubulointerstitial tissue, it was expressed by the total number of cells existing in five fields of 200×magnification. For macrophages, a number of CD11b positive cells existing in glomerulus was considered as a number of CD11b^+CD2^+ macrophages and a case of existing not less than one positive cell per glomerulus was considered as positive (+). In the tubulointerstitial tissue, a number of […] 60 CD11b positive cells was considered as positive (+), or a case of CD11b^−CD2^+ macrophages dominantly increasing. Scoring of evaluation of tubulointerstitial lesions was as follows: + gets 1-point as a light lesion; ++ gets 2-point as a moderate lesion; and +++ gets3-point as a severe lesion. For glomerular lesions, when a proportion of lesioned glomeruli was decreased to not more than 40%, and for tubulointerstitial lesions, when a score of the lesions was not more than 4, it was considered as improved.
For glomerular lesions, by counting glomeruli causing thickening of Bowman's capsule wall and glomerular hyalinosis, a proportion of glomeruli having lesions was calculated. For tubulointerstitial lesions, by qualifying hyperplasia of tubular basement membrane and interstitial fibrosis, levels of the lesions were represented.
(§2) An in vivo biological test was carried out for the γ-lactone derivative according to the present invention using this model. Bulk powder of a test compound was dissolved in sterile physiological saline together with gum arabic, and concentrations of the test compound and gum arabic were adjusted to 30 mg/mL and 5% respectively. The preparation was administered orally or subcutaneously injected at the dose of 30 mg/kg or 3 mg/kg every day. The administration was conducted for the total 21 days of the obstructed period for 14 days and after release of the obstruction for 7 days.
For test groups, a group administered single compound group, a group administered both compound group and a control group administered solution of gum arabic were set up and compared for renal functions and morphological evaluations, as well as numbers of ED1, CD5, CD11b positive cells by means of immunopathology.

[2] = test system: male SD rats, obstruction-released kidney (glomerular lesions and tubulointerstitial lesions); assay: Obstruction release model after complete obstruction of unilateral ureter for 14 days (Example 2-2); parameters: key to Tubulointerstitial lesions: level of lesions: summed lesion score; + = 1, ++ = 2, +++ = 3; ≤6.5 improved; conditions: rat, 30 mg/kg subcutaneously
Text: as §1, §2
For cell surface markers of leukocyte cells which infiltrate the obstruction-released kidney, ED1, CD11b (ED8), CD5 and CD2 were used. […] For CD5^+, a number of not less than 20 per glomerulus was considered as positive. For glomerular lesions, which was characterized by Bowman's capsule wall, glomerular hyalinosis, dilation of urinary space pole and hypertrophy of parietal cells, 50 glomeruli were evaluated to obtain a proportion of pathologic glomeruli. For tubulointerstitial lesions, levels of the lesions were represented by qualifying hyperplasia of tubular basement membrane, tubular enlargement and atrophy and interstitial fibrosis. Scoring was as follows: + gets 1-point as a light lesion; ++ gets 2-point as a moderate lesion; and +++ gets 3-point as a severe lesion. Levels of cell infiltration were evaluated qualitatively according to the above three-point scale. For glomerular lesions, when a proportion of lesioned glomeruli was decreased to not more than 20%, and for tubulointerstitial lesions, when a score of the lesions was not more than 6.5, it was considered as improved.
Numbers of cells positive for CD11b (ED8), CD2 and CD5 were compared by means of immunopathology, and CD11b^+CD2^+ macrophages were considered as regeneration-promoting macrophages in glomeruli and CD11b^−CD2^+CD5+ macrophages were considered as regeneration-promoting macrophages to tubulointerstitial lesions, and herewith, it was estimated whether each cell group is quantitatively dominant or not.

[3] = test system: male SDT rats (spontaneously type II diabetes model), complete skin-excised wounds; assay: Complete skin-excised model, wound healing; conditions: SDT rat, 10 mg/kg subcutaneously every day
Text: Using male SDT rats of 28-30 weeks age, which were a spontaneously type II diabetes model, promoting effect on repair and regeneration in wound healing after complete skin excision were examined according to a partially modified method of Breitbout AS et al. (Ann Plast Surg 1999, 43: 632). That is, an animal was shaved at its back under anesthesia with ether, and skin in 2×2 cm size was excised together with panniculus carnosus in same size to make two complete skin-excised wounds per animal.
Healings of the wounds were observed on the 1st day, 4th day, 7th day, 12h day, 15th day, 21st day and 28th day from the operation. An area of the wounds was obtained as the product of the average vertical length and the average horizontal length which were measured along with a direction of the longest part in the wound.
A test compound was dissolved in sterile physiological saline together with gum arabic. Concentrations of the test compound and gum arabic were adjusted to 30 mg/mL and 5% respectively. The preparation was subcutaneously injected at the dose of 10 mg/kg every day. The administration was started on 6 days before the operation and continued to 28 days after the operation.

[4] = 30 mg/kg subcutaneously every day for 21 days, one value per animal, 30 mg/kg

## C[C@@H](OC(=O)[C@@]1(Oc2ccc(F)cc2)CCC(=O)O1)c1ccc2ccccc2c1 [compound (II-1), (R)-1-naphthalen-2-ylethyl (R)-2-(4-fluorophenoxy)-5-oxotetrahydrofuran-2-carboxylate]
[1]; 30 mg/kg subcutaneously
  cases with increased regeneration-promoting CD11b^+CD2^+ macrophages to glomerular lesions: all five cases
  cases with increased regeneration-promoting CD11b^−CD2^+ macrophages to tubulointerstitial lesions: four of five cases
  pathological improvement of glomerular lesions (cases): four of five cases
  pathological improvement of tubulointerstitial lesions (cases): no tubulointerstitial lesion was improved
[1]; 30 mg/kg subcutaneously every day for 21 days, one value per animal
  Regeneration CD11b^+CD2^+ macrophages to glomerular lesions, Determination: increase = +: + (a case of existing not less than one positive cell per glomerulus was considered as positive (+))
[1]; [4]
  Coincidence of two regeneration macrophages being positive: Coincident; also recorded: Not coincident
  Glomerular lesions: proportion of lesioned glomeruli (%): 10% and 14% and 22% and 57% and 23%
  Number of regeneration CD11b^+CD2^+ macrophages to glomerular lesions: number of positive cells per glomerulus: 1.2 cells per glomerulus and 1.7 cells per glomerulus and 1.1 cells per glomerulus and 2.8 cells per glomerulus and 2.0 cells per glomerulus
  Number of regeneration CD11b^−CD2^+ macrophages to tubulointerstitial lesions: number of positive cells (CD11b) in five fields of 200× magnification: 39 cells in five fields of 200× m and 49 cells in five fields of 200× m and 15 cells in five fields of 200× m and 65 cells in five fields of 200× m and 26 cells in five fields of 200× m
  Regeneration CD11b^−CD2^+ macrophages to tubulointerstitial lesions, Determination: increase +: + (a number of not more than 60 CD11b positive cells was considered as positive (+))
  Serum creatinine: 2.6 mg/dl and 1.7 mg/dl (2×) and 2.0 mg/dl and 1.8 mg/dl
  Tubulointerstitial lesions: level of lesions (quality): 7.5 and 9.0 (2×) and 8.0 and 6.5
[2]
  cases in which regeneration-promoting CD11b^+CD2^+ macrophages were predominant in glomeruli: all five cases
  cases in which regeneration-promoting CD11b^−CD2^+CD5+ macrophages were predominant in tubulointerstitial lesions: negative in tubulointerstitial lesions in all cases
  pathological improvement of glomerular lesions (cases): only one case
  pathological improvement of tubulointerstitial lesions (cases): all five cases
[2]; one value per animal
  Regeneration macrophages to glomerular lesions, Determination Increase +: + (a case of existing not less than one positive cell per glomerulus was considered as positive (+))
[2]; one value per animal, 30 mg/kg
  Degree of cell infiltration: +++
  Number of regeneration CD11b^+CD2^+ macrophages to glomerular lesions: number of positive cells per glomerulus CD11b^+CD2^+: 1.2 cells per glomerulus and 1.7 cells per glomerulus and 1.1 cells per glomerulus and 2.8 cells per glomerulus and 2.0 cells per glomerulus
  Number of regeneration CD11b^−CD2^+CD5^+ macrophages to tubulointerstitial lesions: number of positive cells in five fields of 200× magnification, CD5^+: 6 cells in five fields of 200× m and 9 cells in five fields of 200× m and 3 cells in five fields of 200× m (2×) and 4 cells in five fields of 200× m
  Number of regeneration CD11b^−CD2^+CD5^+ macrophages to tubulointerstitial lesions: number of positive cells in five fields of 200× magnification, CD11b^+: 39 cells in five fields of 200× m and 49 cells in five fields of 200× m and 15 cells in five fields of 200× m and 65 cells in five fields of 200× m and 26 cells in five fields of 200× m
  Serum creatinine: 2.6 mg/dl and 1.7 mg/dl (2×) and 2.0 mg/dl and 1.8 mg/dl
  Tubulointerstitial lesions: level of lesions: 8.0 (4×) and 6.0
[2]; one value per animal, 50 glomeruli evaluated, 30 mg/kg
  Glomerular lesions: proportion of lesioned glomeruli (%): 16% (2×) and 12% (2×) and 8%
[3]; 1st day after complete skin excision
  Excised wound area (cm^2): 3.33 cm^2
[3]; 4th day after complete skin excision
  Excised wound area (cm^2): 2.31 cm^2
[3]; 7th day after complete skin excision
  Excised wound area (cm^2): 1.62 cm^2
[3]; 12th day after complete skin excision
  Excised wound area (cm^2): 0.52** cm^2
[3]; 15th day after complete skin excision
  Excised wound area (cm^2): 0.55 cm^2
[3]; 21st day after complete skin excision
  Excised wound area (cm^2): 0.44 cm^2
[3]; 21st day after the operation
  Crust formation/number of wound: 0/8
[3]; 28th day
  crust formation on the surface of repaired wounds (in words): no crust formation occurred
[3]; 28th day after complete skin excision
  Excised wound area (cm^2): 0.29 cm^2
[3]; 28th day after the operation
  Crust formation/number of wound: 1/8
[3]; versus the control group, 10 mg/kg
  promoting effect on wound healing (in words): significant promoting effect on wound healing at 12th day after the operation; also recorded: promoting effect on healing of epidermis
